Common to all, as to type: cell-based
Test [1] deals with M. suipneumoniae NCTC 10110. As to the kind of experiment: anti-mycoplasmal MIC, Friis broth solidified with agarose (Table 4). As to conditions: Mesomycoplasma hyopneumoniae, NCTC10110, 144 h.
Test [2] has as its system M. gallisepticum S6. Described as above. As to conditions: Mycoplasmoides gallisepticum.
Test [3] deals with M. suipneumoniae HK(2). The description is as above. The following applies: Mesomycoplasma hyopneumoniae, 144 h, 6 days at 37° C.
Test [4] concerns M. suipneumoniae PW/C/210. The test is described as above. As to conditions: Mesomycoplasma hyopneumoniae, 144 h, 6 days at 37° C.
The test system of test [5] is M. suipneumoniae ATCC 25095. The description is as above. The following applies: Mesomycoplasma hyopneumoniae, ATCC25095, 144 h, 6 days at 37° C.
Test [6] relates to M. hyorhinis ATCC 23234. The description is as above. As to conditions: Mesomycoplasma hyorhinis, ATCC23234, 144 h, 6 days at 37° C.
The test system of test [7] is M. suipneumoniae UCD1. The test is described as above. The following applies: Mesomycoplasma hyopneumoniae, 144 h, 6 days at 37° C.
Test [8] deals with M. suipneumoniae MS16. The description is as above. The following applies: Mesomycoplasma hyopneumoniae.
The subject of test [9] is 12 strains of M. suipneumoniae. As to the kind of experiment: anti-mycoplasmal MIC, Friis broth solidified with agarose (Table 4), mean over strains. As to conditions: Mesomycoplasma hyopneumoniae, 144 h; mean of 12 strains; 6 days at 37° C.; read-out: Mean MIC for above 12 strains of M. suipneumoniae.
The subject of test [10] is M. bovis NCTC 10131. As to the kind of experiment: microbe, parasite or virus in culture. The following applies: NCTC10131, 144 h.
The test system of test [11] is Past haemolytica PA5. As to the kind of experiment: MIC veterinary bacteria (Table 2), serial dilution in agar. The following applies: diagnostic sensitivity test agar.
In test [12] the test system is B. subtilis ATCC 6633. The test is described as above. The following applies: diagnostic sensitivity test agar.
Test [13] relates to M. suipneumoniae Str. 11. As to the kind of experiment: anti-mycoplasmal MIC, Friis broth solidified with agarose (Table 4). As to conditions: Mesomycoplasma hyopneumoniae.
Test [14] has as its system M. suipneumoniae J2206/183b. The description is as above. The following applies: Mesomycoplasma hyopneumoniae, 144 h, 6 days at 37° C.
The subject of test [15] is M. suipneumoniae NB12. The description is as above. The following applies: Mesomycoplasma hyopneumoniae.
The test system of test [16] is M. suipneumoniae JF435. Described as above. As to conditions: Mesomycoplasma hyopneumoniae.
Test [17] relates to M. hyosynoviae ATCC 25591. The test is described as above. As to conditions: 144 h.
The subject of test [18] is M. suipneumoniae TAM 6N. Described as above. The following applies: Mesomycoplasma hyopneumoniae, TAM6N, 144 h, 6 days at 37° C.
The test system of test [19] is M pneumoniae ATCC 15492. As to the kind of experiment: in vitro anti-mycoplasmal MIC, Friis' agar (Table 3). Here is the method:
(§1) The minimum inhibitory concentrations (MIC) of the examples were determined by either:
(§2) or (ii) by serial dilution in Friis' agar medium.

The test system of test [20] is M hyorhinis ATCC 23234. The description is as above. Here is the method: as §1, §2
For test [21], the system named is M synoviae ATCC 25204. Described as above. On the procedure:
as §1, §2

The subject of test [22] is M pulmonis JB. The description is as above. On the procedure: as §1, §2
In test [23] the test system is M alkalescens NCTC 10135. The description is as above. Here is the method: as §1, §2
Test [24] concerns M arthritidis ATCC 14124. The description is as above. On the procedure: as §1, §2
Test [25] deals with M bovigenitalium ATCC 14173. The test is described as above. Here is the method: as §1, §2
For test [26], the system named is M hyosynoviae ATCC 25591. The description is as above. On the procedure: as §1, §2
Test [27] deals with M pneumoniae 427a. Described as above. On the procedure:
as §1, §2

For test [28], the system named is M fermentans MWKL4. The test is described as above. Here is the method:
as §1, §2

Test [29] deals with M gallisepticum S6. The test is described as above. Here is the method:
as §1, §2

Test [30] relates to M pneumoniae ATCC 15492. As to the kind of experiment: in vitro anti-mycoplasmal MIC, Friis' broth (Table 3). On the procedure:
as §1
(§3) (i) in Friis' broth using microtitre plates, by modification of the metabolic-inhibition test (Taylor-Robinson, Post Frad, Med. J., 1967, 43, 100).

In test [31] the test system is M dispar H225. Described as above. On the procedure: as §1, §3
For test [32], the system named is M pulmonis JB. The description is as above. Here is the method:
as §1, §3

The test system of test [33] is M dispar NCTC 10125. The test is described as above. On the procedure: as §1, §3
Test [34] relates to M pneumoniae 427a. Described as above. Here is the method: as §1, §3
Test [35] relates to M suipneumoniae Str 11. Described as above. On the procedure: as §1, §3
In test [36] the test system is M suipneumoniae J2206/183b. The test is described as above. On the procedure: as §1, §3
Test [37] relates to M fermentans MWKL4. Described as above. On the procedure: as §1, §3
Test [38] has as its system M bovis ATCC 25025. As to the kind of experiment: in vitro anti-mycoplasmal MIC, Friis' agar (Table 3). On the procedure: as §1, §2
Test [39] deals with M bovis NCTC 10131. The test is described as above. On the procedure: as §1, §2

≈ marks a conversion by molar mass, not a printed value. Read-outs that look alike come from different tables or passages of the source.

This passage reports MIC results from US4312867A, “Antibacterial compounds, processes for their preparation and compositions containing them” (Beecham Group Limited, priority 1979, dated 1982).

With `C/C(=C\C(=O)OCCCS(=O)(=O)N(C)C)CC1OCC(CC2OC2C(C)C(C)O)C(O)C1O` (stereo not drawn) [Example 4, 3-N,N-Dimethylsulphamoylpropyl monate A], the MIC in [1] is 1000 µg/mL (≈ 2030 µM); in test [2] (144 h, M. gallisepticum S6, 6 days at 37° C., read-out: MIC) it was above 10000 µg/mL; in [3], 1000 µg/mL (≈ 2030 µM); in [4], 500 µg/mL (≈ 1010 µM); in [5], 500 µg/mL (≈ 1010 µM); in test [6], 250 µg/mL (≈ 506 µM). In addition, the MIC was 1000 µg/mL (≈ 2030 µM) in test [7]; 500 µg/mL (≈ 1010 µM) in test [8] (144 h, M. suipneumoniae MS16, 6 days at 37° C., read-out: MIC); 750 µg/mL (≈ 1520 µM) in test [9]; at most 10 µg/mL in test [10]; 10 µg/mL (≈ 20.3 µM) in test [11]; “No Growth” in test [12]. The MIC in [13] (144 h, M. suipneumoniae Str. 11, 6 days at 37° C., read-out: MIC) came out at 500 µg/mL (≈ 1010 µM); in test [14], 1000 µg/mL (≈ 2030 µM); in test [15] (NB12, 144 h), 500 µg/mL (≈ 1010 µM); in [16] (JF435, 144 h), 1000 µg/mL (≈ 2030 µM); in [17] (M. hyosynoviae ATCC 25591, 6 days at 37° C., read-out: MIC), 250 µg/mL (≈ 506 µM); in test [18] it was 1000 µg/mL (≈ 2030 µM).
With `C/C(=C\C(=O)OCCCCCCCCS(N)(=O)=O)CC1OCC(CC2OC2C(C)C(C)O)C(O)C1O` (stereo not drawn) [Example 3, 8-Sulphamoyloctyl monate A], the MIC is 0.625 µg/mL (≈ 1.17 µM) in test [19]; 0.312 µg/mL (≈ 0.582 µM) in test [20]; below 0.02 µg/mL in [21]; 0.039 µg/mL (≈ 0.0728 µM) in test [22]; below 0.02 µg/mL in [23]; 5 µg/mL (≈ 9.33 µM) in [24]. Also, the MIC is below 0.039 µg/mL in test [25]; 0.078 µg/mL (≈ 0.146 µM) in test [26]; 0.312 µg/mL (≈ 0.582 µM) in test [27]; 0.039 µg/mL (≈ 0.0728 µM) in test [28]; 2.5 µg/mL (≈ 4.67 µM) in test [29]; 0.312 µg/mL (≈ 0.582 µM) in test [30]. The MIC was found to be 0.02 µg/mL (≈ 0.0373 µM) in [31]; 0.02 µg/mL (≈ 0.0373 µM) in test [32]; 0.02 µg/mL (≈ 0.0373 µM) in test [33]; 0.312 µg/mL (≈ 0.582 µM) in [34]; 0.02 µg/mL (≈ 0.0373 µM) in test [35]; 0.156 µg/mL (≈ 0.291 µM) in [36]. Also, the MIC in test [37] came out at 0.02 µg/mL (≈ 0.0373 µM).
On to `C/C(=C\C(=O)OC(C)CCCCCS(N)(=O)=O)CC1OCC(CC2OC2C(C)C(C)O)C(O)C1O` (stereo not drawn) [Example 5, 7-Sulphamoylhept-2-yl monate A], for which the MIC in test [1] (M. suipneumoniae NCTC 10110, 6 days at 37° C., read-out: MIC) is 500 µg/mL (≈ 958 µM); in test [2] (S6, 144 h), 2500 µg/mL (≈ 4790 µM); in test [3], 1000 µg/mL (≈ 1920 µM); in test [4], 250 µg/mL (≈ 479 µM); in [5], 250 µg/mL (≈ 479 µM); in [6], 250 µg/mL (≈ 479 µM). Also, the MIC in [7] is 1000 µg/mL (≈ 1920 µM); in test [8] (MS16, 144 h) it was 250 µg/mL (≈ 479 µM); in test [9], 480 µg/mL (≈ 920 µM); in [10], at most 10 µg/mL; in [12], “No Growth”; in [13] (STR.11, 144 h), 250 µg/mL (≈ 479 µM). Also, the MIC in test [14] is 500 µg/mL (≈ 958 µM); in [15] (144 h, M. suipneumoniae NB12, 6 days at 37° C., read-out: MIC) it was 500 µg/mL (≈ 958 µM); in test [16] (144 h, M. suipneumoniae JF435, 6 days at 37° C., read-out: MIC), 500 µg/mL (≈ 958 µM); in test [17] it was 100 µg/mL (≈ 192 µM); in [18] it was 500 µg/mL (≈ 958 µM).
As for `C/C(=C\C(=O)OCCCCCCS(N)(=O)=O)CC1OCC(CC2OC2C(C)C(C)O)C(O)C1O` (stereo not drawn) [Example 2, 6-Sulphamoylhexyl monate A], the MIC in [19] was 0.625 µg/mL (≈ 1.23 µM); in test [20] it was 0.156 µg/mL (≈ 0.307 µM); in [21], below 0.02 µg/mL; in test [22] it was at most 0.02 µg/mL; in test [23], below 0.02 µg/mL; in test [24], 5 µg/mL (≈ 9.85 µM). The MIC was at most 0.02 µg/mL in test [25]; 0.039 µg/mL (≈ 0.0768 µM) in [26]; 0.312 µg/mL (≈ 0.615 µM) in [27]; below 0.02 µg/mL in test [38]; 0.039 µg/mL (≈ 0.0768 µM) in [28]; 2.5 µg/mL (≈ 4.92 µM) in test [29]. Besides, the MIC in test [39] is below 0.02 µg/mL; in [30], 0.312 µg/mL (≈ 0.615 µM); in test [31], below 0.02 µg/mL; in [32] it was below 0.02 µg/mL; in test [33] it was below 0.02 µg/mL; in test [34], 0.312 µg/mL (≈ 0.615 µM). For the same compound, the MIC in test [35] was at most 0.02 µg/mL; in test [36], 0.156 µg/mL (≈ 0.307 µM); in test [37], below 0.02 µg/mL.
